What was measured:
Assay in all cases: KinomeScan kinase panel
Type in all cases: binding
EGFR(G719S) = molecular target: T1, EGFR(G719S) (Homo sapiens, UniProt P00533, G719S)
T1 construct: purchased DiscoveRx Corporation (KinomeScan)
Procedure, shortened: (§1)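 Broad-panel profiling: KinomeScan, 442 wild-type and mutant kinases, each exposed to compound at 1000 nM.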

CSNK1G3 = molecular target: T2, CSNK1G3 (Homo sapiens, UniProt Q9Y6M4)
T2 construct: purchased DiscoveRx Corporation (KinomeScan)
Procedure, shortened: as §1

MRCKB = molecular target: T3, MRCKB (Homo sapiens, UniProt Q9Y5S2)
T3 construct: purchased DiscoveRx Corporation (KinomeScan)
T3 sequence (Q9Y5S2 whole entry): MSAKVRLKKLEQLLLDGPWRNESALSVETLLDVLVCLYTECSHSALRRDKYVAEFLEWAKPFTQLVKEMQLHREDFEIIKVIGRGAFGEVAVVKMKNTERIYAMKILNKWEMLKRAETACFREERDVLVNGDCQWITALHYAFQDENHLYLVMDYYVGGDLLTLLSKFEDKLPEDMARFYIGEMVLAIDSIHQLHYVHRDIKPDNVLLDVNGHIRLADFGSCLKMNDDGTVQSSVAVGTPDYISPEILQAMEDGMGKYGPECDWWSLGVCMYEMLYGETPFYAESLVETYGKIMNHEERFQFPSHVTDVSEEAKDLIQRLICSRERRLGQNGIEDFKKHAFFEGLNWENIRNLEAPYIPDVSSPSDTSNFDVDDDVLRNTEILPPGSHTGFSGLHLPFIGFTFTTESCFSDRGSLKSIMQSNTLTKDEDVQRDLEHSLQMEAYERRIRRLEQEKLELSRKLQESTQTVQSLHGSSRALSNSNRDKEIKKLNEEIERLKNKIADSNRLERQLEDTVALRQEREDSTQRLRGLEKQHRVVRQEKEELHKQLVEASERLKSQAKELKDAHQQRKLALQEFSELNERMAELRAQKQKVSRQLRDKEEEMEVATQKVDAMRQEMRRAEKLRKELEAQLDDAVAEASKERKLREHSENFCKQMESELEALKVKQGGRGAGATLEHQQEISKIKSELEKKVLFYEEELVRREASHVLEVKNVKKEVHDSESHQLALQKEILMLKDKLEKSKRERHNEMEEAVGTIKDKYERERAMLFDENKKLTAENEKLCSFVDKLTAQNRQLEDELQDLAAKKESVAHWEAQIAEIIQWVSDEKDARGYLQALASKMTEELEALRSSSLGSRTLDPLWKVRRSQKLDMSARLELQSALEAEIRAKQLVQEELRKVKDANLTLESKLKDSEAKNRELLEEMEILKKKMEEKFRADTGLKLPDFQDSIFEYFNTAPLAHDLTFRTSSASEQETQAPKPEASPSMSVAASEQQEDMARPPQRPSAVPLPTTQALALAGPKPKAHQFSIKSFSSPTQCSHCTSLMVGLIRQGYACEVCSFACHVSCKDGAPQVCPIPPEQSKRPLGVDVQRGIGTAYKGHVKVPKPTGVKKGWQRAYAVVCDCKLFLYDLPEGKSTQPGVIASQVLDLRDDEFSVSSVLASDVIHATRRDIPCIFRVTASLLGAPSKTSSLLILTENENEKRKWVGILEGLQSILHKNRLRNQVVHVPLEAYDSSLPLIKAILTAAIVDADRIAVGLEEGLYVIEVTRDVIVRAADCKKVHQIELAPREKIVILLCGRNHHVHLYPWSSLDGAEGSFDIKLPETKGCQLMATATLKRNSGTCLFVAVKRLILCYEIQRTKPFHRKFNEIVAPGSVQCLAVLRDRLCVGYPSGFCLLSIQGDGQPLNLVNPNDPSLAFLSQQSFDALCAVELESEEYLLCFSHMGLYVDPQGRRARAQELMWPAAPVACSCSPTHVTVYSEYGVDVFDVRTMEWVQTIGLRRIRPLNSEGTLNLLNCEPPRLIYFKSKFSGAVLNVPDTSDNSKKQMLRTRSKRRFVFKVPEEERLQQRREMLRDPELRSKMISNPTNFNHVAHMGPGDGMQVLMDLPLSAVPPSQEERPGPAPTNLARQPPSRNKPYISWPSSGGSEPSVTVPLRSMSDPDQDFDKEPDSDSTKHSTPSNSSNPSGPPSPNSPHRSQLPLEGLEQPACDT
Procedure, shortened: as §1

ERK2 = molecular target: T4, ERK2 (Homo sapiens, UniProt P28482)
T4 construct: purchased DiscoveRx Corporation (KinomeScan)
T4 sequence (P28482 whole entry): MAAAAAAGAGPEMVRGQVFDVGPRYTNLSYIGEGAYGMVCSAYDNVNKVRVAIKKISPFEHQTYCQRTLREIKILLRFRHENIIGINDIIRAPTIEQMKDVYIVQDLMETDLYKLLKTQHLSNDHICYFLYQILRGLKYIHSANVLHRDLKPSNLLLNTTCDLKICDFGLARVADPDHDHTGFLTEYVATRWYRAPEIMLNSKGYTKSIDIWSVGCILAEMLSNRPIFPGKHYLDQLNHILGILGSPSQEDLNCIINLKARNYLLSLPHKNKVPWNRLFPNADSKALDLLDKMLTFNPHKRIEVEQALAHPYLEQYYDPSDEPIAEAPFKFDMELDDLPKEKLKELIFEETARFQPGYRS
Procedure, shortened: as §1

HIPK4 = molecular target: T5, HIPK4 (Homo sapiens, UniProt Q8NE63)
T5 construct: purchased DiscoveRx Corporation (KinomeScan)
Procedure, shortened: as §1

BMPR1B = molecular target: T6, BMPR1B (Homo sapiens, UniProt O00238)
T6 construct: purchased DiscoveRx Corporation (KinomeScan)
Procedure, shortened: as §1

ZAK = molecular target: T7, ZAK (Homo sapiens, UniProt Q9NYL2)
T7 construct: purchased DiscoveRx Corporation (KinomeScan service)
Procedure, shortened: as §1

HIPK1 = molecular target: T8, HIPK1 (Homo sapiens, UniProt Q86Z02)
T8 construct: purchased DiscoveRx Corporation (KinomeScan)
Procedure, shortened: as §1

PAK1 = molecular target: T9, PAK1 (Homo sapiens, UniProt Q13153)
T9 construct: purchased DiscoveRx Corporation (KinomeScan panel)
Procedure, shortened: as §1

PIK3CG = molecular target: T10, PIK3CG (Homo sapiens, UniProt P48736)
T10 construct: purchased DiscoveRx Corporation (KinomeScan)
T10 sequence (P48736 whole entry): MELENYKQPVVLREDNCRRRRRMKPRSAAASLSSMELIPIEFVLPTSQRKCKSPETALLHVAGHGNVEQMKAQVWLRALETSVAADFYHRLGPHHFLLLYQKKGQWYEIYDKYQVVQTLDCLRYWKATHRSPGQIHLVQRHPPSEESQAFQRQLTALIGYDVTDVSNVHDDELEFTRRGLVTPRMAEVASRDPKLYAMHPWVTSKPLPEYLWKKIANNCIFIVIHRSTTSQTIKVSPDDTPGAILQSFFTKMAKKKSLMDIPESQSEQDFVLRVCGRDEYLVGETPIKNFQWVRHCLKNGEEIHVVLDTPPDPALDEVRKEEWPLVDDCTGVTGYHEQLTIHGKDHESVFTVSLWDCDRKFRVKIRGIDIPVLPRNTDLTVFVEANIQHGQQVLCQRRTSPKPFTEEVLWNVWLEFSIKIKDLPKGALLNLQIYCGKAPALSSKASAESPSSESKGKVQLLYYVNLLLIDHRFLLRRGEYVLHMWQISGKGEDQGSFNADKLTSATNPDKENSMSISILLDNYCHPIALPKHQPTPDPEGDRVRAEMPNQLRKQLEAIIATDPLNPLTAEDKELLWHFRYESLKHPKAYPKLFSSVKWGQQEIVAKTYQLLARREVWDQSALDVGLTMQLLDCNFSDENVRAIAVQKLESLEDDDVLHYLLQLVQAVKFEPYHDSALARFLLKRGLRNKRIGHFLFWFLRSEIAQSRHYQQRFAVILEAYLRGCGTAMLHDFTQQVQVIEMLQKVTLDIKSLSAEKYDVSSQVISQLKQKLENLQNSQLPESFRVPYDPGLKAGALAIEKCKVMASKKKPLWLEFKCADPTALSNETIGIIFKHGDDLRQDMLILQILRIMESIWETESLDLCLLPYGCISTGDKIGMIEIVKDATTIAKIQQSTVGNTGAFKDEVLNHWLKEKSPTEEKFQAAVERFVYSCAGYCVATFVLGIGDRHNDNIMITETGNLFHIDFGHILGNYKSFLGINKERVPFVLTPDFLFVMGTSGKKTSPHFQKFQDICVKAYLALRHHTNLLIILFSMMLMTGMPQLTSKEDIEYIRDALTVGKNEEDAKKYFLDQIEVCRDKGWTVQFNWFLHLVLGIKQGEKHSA
Procedure, shortened: as §1

ULK1 = molecular target: T11, ULK1 (Homo sapiens, UniProt O75385)
T11 construct: purchased DiscoveRx Corporation (KinomeScan service)
Procedure, shortened: as §1

SIK = molecular target: T12, SIK (Homo sapiens, UniProt P57059)
T12 construct: purchased DiscoveRx Corporation (KinomeScan)
T12 sequence (P57059 whole entry): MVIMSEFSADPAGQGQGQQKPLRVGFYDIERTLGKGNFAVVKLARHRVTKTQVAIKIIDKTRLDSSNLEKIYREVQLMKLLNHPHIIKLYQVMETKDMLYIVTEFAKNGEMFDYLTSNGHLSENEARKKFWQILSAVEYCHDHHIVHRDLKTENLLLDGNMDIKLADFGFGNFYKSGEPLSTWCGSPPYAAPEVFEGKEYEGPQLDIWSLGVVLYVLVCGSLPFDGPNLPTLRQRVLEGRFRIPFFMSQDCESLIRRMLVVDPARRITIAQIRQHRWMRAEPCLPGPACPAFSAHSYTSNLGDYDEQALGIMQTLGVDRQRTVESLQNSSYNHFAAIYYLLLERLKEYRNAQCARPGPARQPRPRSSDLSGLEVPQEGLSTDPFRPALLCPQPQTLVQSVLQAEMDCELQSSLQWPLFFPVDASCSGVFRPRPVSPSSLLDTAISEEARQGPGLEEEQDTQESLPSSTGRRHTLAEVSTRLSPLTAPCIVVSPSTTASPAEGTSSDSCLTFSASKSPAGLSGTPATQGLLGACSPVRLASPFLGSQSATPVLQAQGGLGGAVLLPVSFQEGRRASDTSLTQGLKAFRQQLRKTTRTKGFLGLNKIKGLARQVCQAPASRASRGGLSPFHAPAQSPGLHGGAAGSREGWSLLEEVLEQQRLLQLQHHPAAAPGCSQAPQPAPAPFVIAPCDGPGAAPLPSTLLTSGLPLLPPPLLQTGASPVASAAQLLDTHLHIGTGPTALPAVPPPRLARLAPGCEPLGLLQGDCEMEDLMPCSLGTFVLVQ
Procedure, shortened: as §1

KIT(A829P) = molecular target: T13, KIT(A829P) (Homo sapiens, UniProt P10721, A829P)
T13 construct: purchased DiscoveRx Corporation (KinomeScan)
Procedure, shortened: as §1

TNNI3K = molecular target: T14, TNNI3K (Homo sapiens, UniProt Q59H18)
T14 construct: purchased DiscoveRx Corporation (KinomeScan)
Procedure, shortened: as §1

RIPK1 = molecular target: T15, RIPK1 (Homo sapiens, UniProt Q13546)
T15 construct: purchased DiscoveRx Corporation
Procedure, shortened: as §1

MARK4 = molecular target: T16, MARK4 (Homo sapiens, UniProt Q96L34)
T16 construct: purchased DiscoveRx Corporation (KinomeScan)
Procedure, shortened: as §1

[1] = molecular target: T17, RSK2(Kin.Dom.1-N-terminal) (Homo sapiens, UniProt P51812)
T17 construct: Kin.Dom.1; purchased DiscoveRx Corporation (KinomeScan)
T17 sequence (P51812 68-327 limits assumed): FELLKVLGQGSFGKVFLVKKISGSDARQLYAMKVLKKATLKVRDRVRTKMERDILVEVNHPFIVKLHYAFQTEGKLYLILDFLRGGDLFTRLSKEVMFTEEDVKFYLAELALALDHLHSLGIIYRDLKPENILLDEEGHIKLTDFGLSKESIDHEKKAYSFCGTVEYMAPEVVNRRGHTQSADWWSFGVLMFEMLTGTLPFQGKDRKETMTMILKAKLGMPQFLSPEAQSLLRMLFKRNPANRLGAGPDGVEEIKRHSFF
Procedure, shortened: as §1

HPK1 = molecular target: T18, HPK1 (Homo sapiens, UniProt Q92918)
T18 construct: purchased DiscoveRx Corporation (KinomeScan)
Procedure, shortened: as §1

PIK3CA(C420R) = molecular target: T19, PIK3CA(C420R) (Homo sapiens, UniProt P42336, C420R)
T19 construct: purchased DiscoveRx Corporation (KinomeScan)
Procedure, shortened: as §1

TAK1 = molecular target: T20, TAK1 (Homo sapiens, UniProt O43318)
T20 construct: purchased DiscoveRx Corporation (KinomeScan)
Procedure, shortened: as §1

[2] = molecular target: T21, RPS6KA4(kin.Dom.2-C-termimal) (Homo sapiens, UniProt O75676)
T21 construct: kin.Dom.2; purchased DiscoveRx Corporation
Procedure, shortened: as §1

MEK6 = molecular target: T22, MEK6 (Homo sapiens, UniProt P52564)
T22 construct: purchased DiscoveRx Corporation (KinomeScan)
Procedure, shortened: as §1

FLT1 = molecular target: T23, FLT1 (Homo sapiens, UniProt P17948)
T23 construct: purchased DiscoveRx Corporation (KinomeScan)
Procedure, shortened: as §1

RET = molecular target: T24, RET (Homo sapiens, UniProt P07949)
T24 construct: purchased DiscoveRx Corporation
Procedure, shortened: as §1

MAP4K3 = molecular target: T25, MAP4K3 (Homo sapiens, UniProt Q8IVH8)
T25 construct: purchased DiscoveRx Corporation (KinomeScan)
Procedure, shortened: as §1

[3] = molecular target: T26, RSK1(Kin.Dom.2-C-terminal) (Homo sapiens, UniProt Q15418)
T26 construct: Kin.Dom.2; purchased DiscoveRx Corporation
Procedure, shortened: as §1

KIT(V559D, T670I) = molecular target: T27, KIT(V559D, T670I) (Homo sapiens, UniProt P10721, T670I/V559D)
T27 construct: purchased DiscoveRx Corporation (KinomeScan)
Procedure, shortened: as §1

ACVR2A = molecular target: T28, ACVR2A (Homo sapiens, UniProt P27037)
T28 construct: purchased DiscoveRx Corporation (KinomeScan)
Procedure, shortened: as §1

ROCK1 = molecular target: T29, ROCK1 (Homo sapiens, UniProt Q13464)
T29 construct: purchased DiscoveRx Corporation
Procedure, shortened: as §1

CLK4 = molecular target: T30, CLK4 (Homo sapiens, UniProt Q9HAZ1)
T30 construct: purchased DiscoveRx Corporation (KinomeScan)
Procedure, shortened: as §1

TXK = molecular target: T31, TXK (Homo sapiens, UniProt P42681)
T31 construct: purchased DiscoveRx Corporation (KinomeScan)
Procedure, shortened: as §1

CDK7 = molecular target: T32, CDK7 (Homo sapiens, UniProt P50613)
T32 construct: purchased DiscoveRx Corporation (KinomeScan)
Procedure, shortened: as §1

NEK4 = molecular target: T33, NEK4 (Homo sapiens, UniProt P51957)
T33 construct: purchased DiscoveRx Corporation (KinomeScan panel)
T33 sequence (P51957 whole entry): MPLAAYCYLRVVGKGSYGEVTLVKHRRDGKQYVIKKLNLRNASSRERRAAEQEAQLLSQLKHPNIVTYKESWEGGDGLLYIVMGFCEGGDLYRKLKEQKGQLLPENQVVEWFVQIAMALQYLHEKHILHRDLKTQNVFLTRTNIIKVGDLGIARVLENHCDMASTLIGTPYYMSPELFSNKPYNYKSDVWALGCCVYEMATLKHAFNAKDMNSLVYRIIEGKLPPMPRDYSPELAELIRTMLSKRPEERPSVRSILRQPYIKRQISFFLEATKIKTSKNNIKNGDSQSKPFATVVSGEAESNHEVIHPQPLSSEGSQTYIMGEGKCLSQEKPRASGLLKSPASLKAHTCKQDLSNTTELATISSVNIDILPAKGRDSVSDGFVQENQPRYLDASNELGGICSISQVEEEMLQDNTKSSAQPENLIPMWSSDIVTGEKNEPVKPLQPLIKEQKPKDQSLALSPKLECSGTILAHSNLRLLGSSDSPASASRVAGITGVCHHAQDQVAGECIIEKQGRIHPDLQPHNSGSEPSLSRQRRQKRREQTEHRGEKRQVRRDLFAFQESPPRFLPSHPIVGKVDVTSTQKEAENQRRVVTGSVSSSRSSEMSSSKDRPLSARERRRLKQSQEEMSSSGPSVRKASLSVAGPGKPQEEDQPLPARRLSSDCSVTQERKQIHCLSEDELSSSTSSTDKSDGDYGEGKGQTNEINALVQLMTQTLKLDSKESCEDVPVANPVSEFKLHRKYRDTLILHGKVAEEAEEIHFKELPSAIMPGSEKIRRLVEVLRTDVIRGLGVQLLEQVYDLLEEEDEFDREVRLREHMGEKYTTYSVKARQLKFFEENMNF
Procedure, shortened: as §1

MKNK2 = molecular target: T34, MKNK2 (Homo sapiens, UniProt Q9HBH9)
T34 construct: purchased DiscoveRx Corporation (KinomeScan)
Procedure, shortened: as §1

For `CCOP(=O)(CN1CCC(COc2cc3nccc(Oc4ccc(NC(=O)C5(C(=O)Nc6ccc(F)cc6)CC5)cc4F)c3cc2OC)CC1)OCC` [Example 10, N1-[4-[[7-[[1-(diethoxyphosphorylmethyl)-4-piperidinyl]methoxyl]-6-methoxyl-4-quinolyl]oxyl]-3-fluorophenyl]-N1′-(4-fluorophenyl)cyclopropane-1,1-dicarboxamide], the “% Ctrl@1000 nM” value (EGFR(G719S)) was 81 % Ctrl, the “% Ctrl@1000 nM” value (CSNK1G3) was 100 % Ctrl and the “% Ctrl@1000 nM” value (MRCKB) was 100 % Ctrl. For the same molecule, the “% Ctrl@1000 nM” value (ERK2) was 100 % Ctrl, the “% Ctrl@1000 nM” value (HIPK4) was 0.15 % Ctrl and the “% Ctrl@1000 nM” value (BMPR1B) was 100 % Ctrl. For the same molecule, the “% Ctrl@1000 nM” value (ZAK) was 36 % Ctrl, the “% Ctrl@1000 nM” value (HIPK1) was 92 % Ctrl and the “% Ctrl@1000 nM” value (PAK1) was 37 % Ctrl. The “% Ctrl@1000 nM” value (PIK3CG) was 100 % Ctrl, the “% Ctrl@1000 nM” value (ULK1) was 100 % Ctrl and the “% Ctrl@1000 nM” value (SIK) was 60 % Ctrl. The “% Ctrl@1000 nM” value (KIT(A829P)) was 64 % Ctrl, the “% Ctrl@1000 nM” value (TNNI3K) was 94 % Ctrl and the “% Ctrl@1000 nM” value (RIPK1) was 99 % Ctrl. For the same molecule, the “% Ctrl@1000 nM” value (MARK4) was 100 % Ctrl, the “% Ctrl@1000 nM” value [1] was 100 % Ctrl and the “% Ctrl@1000 nM” value (HPK1) was 40 % Ctrl. The “% Ctrl@1000 nM” value (PIK3CA(C420R)) was 100 % Ctrl, the “% Ctrl@1000 nM” value (TAK1) was 75 % Ctrl and the “% Ctrl@1000 nM” value [2] was 100 % Ctrl. The “% Ctrl@1000 nM” value (MEK6) was 87 % Ctrl, the “% Ctrl@1000 nM” value (FLT1) was 7.3 % Ctrl and the “% Ctrl@1000 nM” value (RET) was 0.1 % Ctrl. The “% Ctrl@1000 nM” value (MAP4K3) was 20 % Ctrl, the “% Ctrl@1000 nM” value [3] was 100 % Ctrl and the “% Ctrl@1000 nM” value (KIT(V559D, T670I)) was 1.4 % Ctrl. The “% Ctrl@1000 nM” value (ACVR2A) was 100 % Ctrl, the “% Ctrl@1000 nM” value (ROCK1) was 100 % Ctrl and the “% Ctrl@1000 nM” value (CLK4) was 46 % Ctrl. The “% Ctrl@1000 nM” value (TXK) was 62 % Ctrl, the “% Ctrl@1000 nM” value (CDK7) was 15 % Ctrl and the “% Ctrl@1000 nM” value (NEK4) was 100 % Ctrl. For the same molecule, the “% Ctrl@1000 nM” value (MKNK2) was 0.05 % Ctrl.

Source: patent publication US8933230B2, “Phosphorus-containing group-substituted quinoline, its preparation process, medical composition containing the compounds and application” (priority 2011, dated 2015)
